Assay results published in PMC4544630, “Contribution of C-glucosidic ellagitannins to Lythrum salicaria L. influence on pro-inflammatory functions of human neutrophils” (Journal of Natural Medicines, 2014).

What was measured:
[1] = molecular target: T1, bovine testis hyaluronidase (Bos taurus, UniProt Q2YDK3); test: Hyaluronidase activity, USP turbidimetric method modified; type: biochemical; conditions: for Hyaluronidase activity Mean(%): % of 100% active enzyme control
T1 construct: purchased Sigma–Aldrich GmbH (Steinheim, Germany); host or cells: bovine testis
T1 sequence (Q2YDK3 36-553): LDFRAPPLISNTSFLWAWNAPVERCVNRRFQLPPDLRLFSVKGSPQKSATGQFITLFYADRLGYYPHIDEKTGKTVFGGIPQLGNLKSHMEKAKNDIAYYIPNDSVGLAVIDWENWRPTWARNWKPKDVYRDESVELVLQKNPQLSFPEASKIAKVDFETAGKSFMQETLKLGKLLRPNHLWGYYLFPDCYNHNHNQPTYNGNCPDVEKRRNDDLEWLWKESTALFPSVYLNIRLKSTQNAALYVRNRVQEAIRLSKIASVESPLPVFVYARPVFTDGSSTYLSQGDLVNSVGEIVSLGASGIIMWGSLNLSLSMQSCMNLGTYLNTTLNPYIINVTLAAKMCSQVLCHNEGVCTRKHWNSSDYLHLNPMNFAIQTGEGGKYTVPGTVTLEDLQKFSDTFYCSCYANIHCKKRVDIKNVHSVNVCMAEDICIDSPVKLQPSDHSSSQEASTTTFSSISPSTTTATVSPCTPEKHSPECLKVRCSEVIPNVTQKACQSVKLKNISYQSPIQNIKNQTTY
Source text: The […] flowering herb was collected from its natural habitat in Umer in the Świętokrzyskie region (Poland) in July 2011. Its identity was confirmed anatomically and morphologically based on its pharmacopoeial monograph in the Department of Pharmacognosy and Molecular Basis of Phytotherapy, Medical University of Warsaw, where the voucher specimen UMER2011 is deposited. […] […]), castalagin ([…] (SB) and […]. 1, 2) from […] performed according to Piwowarski and Kiss. […] Isolated ellagitannins were of >95 % purity (determined by the HPLC-DAD-CAD method). […] Gallic acid (>96 % purity) was purchased from ChromaDex (Santa Ana, USA). Propidium iodide was purchased from BD Biosciences (San Diego, CA, USA). All substances used were of >95 % purity. Phosphate-buffered saline (PBS) was purchased from Gibco (Carlsbad, CA, USA). The influence of extract and ellagitannins on hyaluronidase activity was measured using the USP turbidimetric method modified by Piwowarski et al. […] Heparin was used as a positive control.

[2] = test system: ethanol-induced gastric lesions; parameters: method as in PMID 12590500; conditions: mouse; orally 50 mg/kg b.w.; cited from earlier work
ROS [3] = test: ROS release from f-MLP-stimulated neutrophils, luminol chemiluminescence; type: cell-based, human; conditions: % of stimulated control
Source text: (§1) Peripheral venous blood was taken from healthy human donors (20–35 years old) in the Warsaw Blood Donation Centre. […] The study conformed to the principles of the Declaration of Helsinki. Neutrophils were isolated using a standard method of dextran sedimentation prior to hypotonic lysis of erythrocytes and to centrifugation in a Ficoll Hypaque gradient. The purity of neutrophil preparations was >97 %, and viability measured by trypan blue exclusion was >98 %. Neutrophils were then resuspended in appropriate medium to perform the selected assay.
(§2) Generation of oxidants by f-MLP or PMA-stimulated neutrophils was measured using luminol- or lucigenin-dependent chemiluminescence tests. 70 μL of cell suspension (2 × 10^5/mL) in HBSS was incubated with 50 μL of compound or extract solution (final concentrations of 1, 5 and 20 μM or μg/mL) together with 50 μL of luminol (100 μM) or lucigenin (200 μM) solution. ROS production was initiated by the addition of 30 μL of f-MLP (0.1 μg/mL) or PMA (1 μg/mL). Changes in chemiluminescence at 37 °C were measured immediately for 45 min at intervals of 2 min in a microplate reader (Biotek). Ascorbic acid was used as a positive control.

MMP-9 = MMP-9 production by LPS-stimulated neutrophils (ELISA); type: cell-based, human; conditions: LPS 100 ng/mL, 24 h, % of stimulated control
Source text: as §1
(§3) Neutrophils (2 × 10^5/mL) were cultured in 24-well plates in RPMI 1640 medium with 10 % FBS, 10 mM HEPES, and 2 mM L-glutamine in the absence or presence of LPS (100 ng/mL) for 24 h at 37 °C with 5 % CO2 in the absence or presence of extract at concentrations of 1, 5 and 20 μg/mL, and compounds at concentrations of 1, 5 and 20 μM were added to 1 mL of cell suspension 1 h before the stimuli. After 24 h, the neutrophils were harvested and centrifuged (2000 RPM; 10 min; 4 °C). The amount of IL-8 or MMP-9 released into cell supernatants was measured by enzyme-linked immunosorbent assay (ELISA) following the manufacturer’s instructions (R&D Systems, Minneapolis, MN, USA). PBS was used as a non-stimulated control. Curcumin was used as a positive control, according to Aggarwal and Harikumar and Antoine et al..

ROS [4] = test: ROS release from PMA-stimulated neutrophils, lucigenin chemiluminescence; type: cell-based, human; conditions: PMA + lucygenin, % of stimulated control
Source text: as §1, §2

MPO = MPO release from cytochalasin A/f-MLP-stimulated neutrophils (TMB substrate); type: cell-based, human; conditions: for MPO release Mean(%): cytochalasin A/f-MLP, % of stimulated control; for activity on MPO release: all tested concentrations (1, 5, 20 μM)
Source text: Peripheral venous blood was taken from healthy human donors (20-35 years old) in the Warsaw Blood Donation Centre. […] The study conformed to the principles of the Declaration of Helsinki. Neutrophils were isolated using a standard method of dextran sedimentation prior to hypotonic lysis of erythrocytes and to centrifugation in a Ficoll Hypaque gradient. The purity of neutrophil preparations was >97 %, and viability measured by trypan blue exclusion was >98 %. Neutrophils were then resuspended in appropriate medium to perform the selected assay. Neutrophil MPO release was determined using TMB as a substrate. […] After centrifugation (2000 rpm; 10 min; 4 °C), 100 μL of supernatant was incubated with 50 μL of the TMB liquid substrate system. The reaction was terminated after 20 min by the addition of 2 M hydrochloric acid. The absorbance was measured at […] using a microplate reader (BioTek). Gallic acid was used as a positive control, according to Kroes et al..

IL-8 = IL-8 production by LPS-stimulated neutrophils (ELISA); type: cell-based, human; conditions: LPS 100 ng/mL, 24 h, % of stimulated control
Source text: as §1, §3

elastase = test: Elastase release from cytochalasin A/f-MLP-stimulated neutrophils (SAAVNA substrate); type: cell-based, human; conditions: for Elastase release Mean(%): % of stimulated control; for activity on elastase release: tested concentrations (1, 5, 20 μM)
Source text: as §1
Neutrophil elastase release was determined using SAAVNA as a substrate, and […] was measured spectrophotometrically. 100 μL of cell suspension (5 × 10^5/mL) in HBSS was preincubated with 50 μL of compound or extract solution (final concentrations of 1, 5 and 20 μM or μg/mL) for 15 min at 37 °C and then stimulated with 50 μL of cytochalasin A (5 μg/mL) and f-MLP (0.1 μg/mL) for 15 min. The neutrophils were centrifuged (2000 rpm; 10 min; 4 °C). After the addition of 50 μL of SAAVNA solution (1.6 mg/mL) to 100 μL of supernatant, the extent of […] was measured spectrophotometrically for 1 h at intervals of 20 min, at 412 nm using a microplate reader (BioTek). According to Kanashiro et al., quercetin was used as a positive control.

## O=C1OC[C@H]2OC(=O)c3cc(O)c(O)c(O)c3-c3c(O)c(O)c(O)c4c3C(=O)O[C@H]([C@H]3OC(=O)c5c-4c(O)c(O)c(O)c5[C@H]3O)[C@@H]2OC(=O)c2cc(O)c(O)c(O)c2-c2c1cc(O)c(O)c2O [C, castalagin]
[1]
  IC50: 3.1 ± 0.2 µM
[1]; 1 μM
  Hyaluronidase activity Mean(%): 87,07%
[1]; 2 μM
  Hyaluronidase activity Mean(%): 73,08%
[1]; 5 μM
  Hyaluronidase activity Mean(%): 19,92%
[1]; 20 μM
  Hyaluronidase activity Mean(%): 3,13%
[2]
  reduction of ethanol-induced gastric lesions: very potent in the reduction of ethanol-induced gastric lesions
ROS [3]; 1 μM
  ROS release Mean(%): 62,41%
ROS [3]; 5 μM
  ROS release Mean(%): 40,10%
ROS [3]; 20 μM
  ROS release Mean(%): 29,55%
MMP-9; 1 μM
  MMP-9 production Mean (%): 92,70%
MMP-9; 5 μM
  MMP-9 production Mean (%): 88,18%
MMP-9; 20 μM
  MMP-9 production Mean (%): 96,42%
ROS [4]; 1 μM
  ROS release Mean(%): 79,28%
ROS [4]; 5 μM
  ROS release Mean(%): 60,48%
ROS [4]; 20 μM
  ROS release Mean(%): 37,00%
MPO; 1 μM
  MPO release Mean(%): 75,53%
MPO; 5 μM
  MPO release Mean(%): 56,44%
MPO; 20 μM
  MPO release Mean(%): 29,85%
MPO
  activity on MPO release: expressed inhibitory activity at all tested concentrations
IL-8; 1 μM
  IL-8 production Mean (%): 92,43%
IL-8; 5 μM
  IL-8 production Mean (%): 75,24%
IL-8; 20 μM
  IL-8 production Mean (%): 70,24%
elastase; 1 μM
  Elastase release Mean(%): 96,55%
elastase; 5 μM
  Elastase release Mean(%): 102,40%
elastase; 20 μM
  Elastase release Mean(%): 105,22%
elastase
  activity on elastase release: completely inactive

## O=C1OCC2OC(=O)c3cc(O)c(O)c(O)c3-c3c(O)c(O)c(O)c4c3C(=O)OC(C2OC(=O)c2cc(O)c(O)c(O)c2-c2c1cc(O)c(O)c2O)C1OC(=O)c2c-4c(O)c(O)c(O)c2C1O (centres unmarked) [V, vescalagin]
[1]
  IC50: 3.1 ± 0.2 µM
[1]; 1 μM
  Hyaluronidase activity Mean(%): 88,10%
[1]; 2 μM
  Hyaluronidase activity Mean(%): 68,10%
[1]; 5 μM
  Hyaluronidase activity Mean(%): 18,39%
[1]; 20 μM
  Hyaluronidase activity Mean(%): 5,10%
ROS [3]; 1 μM
  ROS release Mean(%): 63,47%
ROS [3]; 5 μM
  ROS release Mean(%): 46,61%
ROS [3]; 20 μM
  ROS release Mean(%): 30,13%
MMP-9; 1 μM
  MMP-9 production Mean (%): 85,96%
MMP-9; 5 μM
  MMP-9 production Mean (%): 99,57%
MMP-9; 20 μM
  MMP-9 production Mean (%): 89,91%
ROS [4]; 1 μM
  ROS release Mean(%): 66,84%
ROS [4]; 5 μM
  ROS release Mean(%): 50,90%
ROS [4]; 20 μM
  ROS release Mean(%): 28,93%
MPO; 1 μM
  MPO release Mean(%): 81,67%
MPO; 5 μM
  MPO release Mean(%): 65,70%
MPO; 20 μM
  MPO release Mean(%): 41,17%
MPO
  activity on MPO release: expressed inhibitory activity at all tested concentrations
IL-8; 1 μM
  IL-8 production Mean (%): 98,64%
IL-8; 5 μM
  IL-8 production Mean (%): 80,63%
IL-8; 20 μM
  IL-8 production Mean (%): 71,68%
elastase; 1 μM
  Elastase release Mean(%): 102,25%
elastase; 5 μM
  Elastase release Mean(%): 104,61%
elastase; 20 μM
  Elastase release Mean(%): 102,89%
elastase
  activity on elastase release: completely inactive

## O=C(OC1COC(=O)c2cc(O)c(O)c(O)c2-c2c(cc(O)c(O)c2O)C(=O)OC1C1OC(=O)c2cc(O)c(O)c(O)c2-c2c(O)c(O)c(O)c3c2C(=O)OC1C3O)c1cc(O)c(O)c(O)c1Oc1cc2c(c(O)c1O)-c1c(cc(O)c(O)c1O)C(=O)OCC1OC(=O)c3cc(O)c(O)c(O)c3-c3c(O)c(O)c(O)c4c3C(=O)OC(C1OC2=O)C1OC(=O)c2c-4c(O)c(O)c(O)c2C1O (centres unmarked) [SC, salicarinin C]
[1]
  IC50: 2.5 ± 0.2 µM
[1]; 1 μM
  Hyaluronidase activity Mean(%): 81,82%
[1]; 2 μM
  Hyaluronidase activity Mean(%): 57,68%
[1]; 5 μM
  Hyaluronidase activity Mean(%): 8,00%
[1]; 20 μM
  Hyaluronidase activity Mean(%): 0,50%
ROS [3]; 1 μM
  ROS release Mean(%): 63,16%
ROS [3]; 5 μM
  ROS release Mean(%): 34,71%
ROS [3]; 20 μM
  ROS release Mean(%): 18,92%
MMP-9; 1 μM
  MMP-9 production Mean (%): 97,74%
MMP-9; 5 μM
  MMP-9 production Mean (%): 92,17%
MMP-9; 20 μM
  MMP-9 production Mean (%): 86,61%
ROS [4]; 1 μM
  ROS release Mean(%): 66,62%
ROS [4]; 5 μM
  ROS release Mean(%): 34,56%
ROS [4]; 20 μM
  ROS release Mean(%): 7,37%
MPO; 1 μM
  MPO release Mean(%): 66,67%
MPO; 5 μM
  MPO release Mean(%): 52,85%
MPO; 20 μM
  MPO release Mean(%): 5,95%
IL-8; 1 μM
  IL-8 production Mean (%): 77,70%
IL-8; 5 μM
  IL-8 production Mean (%): 78,29%
IL-8; 20 μM
  IL-8 production Mean (%): 56,68%
elastase; 1 μM
  Elastase release Mean(%): 85,10%
elastase; 5 μM
  Elastase release Mean(%): 80,91%
elastase; 20 μM
  Elastase release Mean(%): 50,60%
